Each structure is given as a SMILES string.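 Where inhibition never reached the appropriate level, the endpoint shown equals the highest concentration tested. Otherwise, values were interpolated linearly from a five-concentration, 48-hour dose response in 96-well plates. GI50 is the concentration that inhibits growth by half.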 Activity calls are given as the source filed them. Cut-off read from the data, not from the text of the source: active = GI50 up to about 1.1 µM and inactive = higher. Bounds are passed on as bounds.

The results in this text go back to ChEMBL document CHEMBL1201862, “PubChem BioAssay data set” (2004).

Among the test systems are A549; ACHN; HCC 2998; HCT-15; IGROV-1; M14; MCF7; MOLT-4; Malme-3M; NCI-H23; NCI-H460; NCI-H522; OVCAR-5; OVCAR-8; RPMI-8226; SK-MEL-28; SK-MEL-2; SR; SW-620; UACC-62.
Assay in all cases: NCI-60 cell line screen, 48 h

Turning to `CC(=O)Nc1ccc(N2C(=O)/C(=C\c3cccc(Oc4ccccc4)c3)S(=O)(=O)C2c2ccccc2)cc1` (stereo not given), the GI50 in the test with A549 is > 100 µM (inactive); with ACHN, 74.1 µM (inactive); in the test on HCC 2998 it was > 100 µM (inactive); with HCT-15 it was over 100 µM; in the test with IGROV-1, 51.2 µM (inactive); with M14 it was 67 µM (inactive). Besides, the GI50 in the test on MCF7 is 32.2 µM (inactive); in the test on MOLT-4, 28.2 µM (inactive); in the test on Malme-3M, > 100 µM (inactive); with NCI-H23, > 100 µM (inactive); with NCI-H460, > 100 µM (inactive); in the test with NCI-H522 it was 71.8 µM (inactive). The GI50 is > 100 µM (inactive) in the test on OVCAR-5; 35.7 µM (inactive) in the test with OVCAR-8; 20.4 µM (inactive) in the test on RPMI-8226; 91 µM (inactive) in the test with SK-MEL-28; > 100 µM (inactive) with SK-MEL-2; 31.4 µM (inactive) in the test on SR. The results for the GI50 with SW-620 and in the test on UACC-62 were 33.3 µM (inactive) and 83.2 µM (inactive), respectively.

Turning to `COc1ccc(/C=C/NC=O)cc1`, the GI50 in the test on A549 was > 100 µM (inactive); in the test on ACHN, > 100 µM (inactive); with HCC 2998, > 100 µM (inactive); in the test with HCT-15, over 100 µM; in the test with IGROV-1, > 100 µM (inactive); in the test on M14, > 100 µM (inactive). Also, the GI50 with MCF7, with MOLT-4, with Malme-3M, in the test with NCI-H23, in the test with NCI-H460 and in the test with NCI-H522 was > 100 µM (inactive) in each case. In addition, the GI50 with OVCAR-5, with OVCAR-8, in the test on RPMI-8226, with SK-MEL-28, in the test on SK-MEL-2 and in the test with SR was > 100 µM (inactive) throughout. The GI50 in the test with SW-620 and in the test on UACC-62 was > 100 µM (inactive) each time.

`CCN(CC)CCn1ncc2ccc3c(c(=O)c4cccnc4n3CCN(CC)CC)c21`: the GI50 is 0.618 µM (active) in the test on A549; 0.733 µM (active) with ACHN; 0.75 µM (active) in the test with HCC 2998; 0.743 µM in the test with HCT-15; 0.625 µM (active) with IGROV-1; 1.41 µM (inactive) with M14. For the same compound, the GI50 with MCF7 is 0.618 µM (active); in the test with MOLT-4 it was 0.344 µM (active); with Malme-3M, 1.75 µM (inactive); in the test with NCI-H23, 1.29 µM (inactive); in the test with NCI-H460, 0.403 µM (active); in the test on NCI-H522, 0.845 µM (active). Besides, the GI50 was 1.09 µM (active) in the test with OVCAR-5; 0.561 µM (active) with OVCAR-8; 0.931 µM (active) with RPMI-8226; 2.05 µM (inactive) in the test with SK-MEL-28; 1.79 µM (inactive) with SK-MEL-2; 0.284 µM (active) in the test with SR. The results for the GI50 with SW-620 and with UACC-62 were 0.519 µM (active) and 2.49 µM (inactive), respectively.

Turning to `C=CCOc1ccc(C2C(C(=O)OCC)C(=O)CC(C)(O)C2C(=O)OCC)cc1OC` (stereo not given), the GI50 in the test on A549 is > 100 µM (inactive); with ACHN, > 100 µM (inactive); in the test on HCC 2998, > 100 µM (inactive); in the test on HCT-15 it was over 100 µM; with IGROV-1 it was > 100 µM (inactive); in the test with M14, > 100 µM (inactive). In addition, the GI50 in the test with MCF7, in the test on MOLT-4, in the test on Malme-3M, in the test on NCI-H23, in the test on NCI-H460 and in the test on NCI-H522 was > 100 µM (inactive) in each case. The GI50 in the test on OVCAR-5, with OVCAR-8, in the test with RPMI-8226, in the test with SK-MEL-28, with SK-MEL-2 and in the test with SR was > 100 µM (inactive) throughout. The GI50 with SW-620 and in the test with UACC-62 was > 100 µM (inactive) each time.

For `C/C(=N/NC(=S)Nc1ccccc1Cl)c1cccc(/C(C)=N\NC(=S)Nc2ccccc2Cl)n1`, the GI50 in the test on A549 is 29.6 µM (inactive); in the test on ACHN, 55.5 µM (inactive); in the test with HCC 2998, > 100 µM (inactive); with HCT-15, 15 µM; in the test on IGROV-1 it was 42.2 µM (inactive); with M14 it was 22 µM (inactive). Also, the GI50 was 15.1 µM (inactive) in the test with MCF7; 23.6 µM (inactive) with MOLT-4; 35.8 µM (inactive) in the test on Malme-3M; 54.7 µM (inactive) with NCI-H23; 5.47 µM (inactive) with NCI-H460; 46.7 µM (inactive) with NCI-H522. Also, the GI50 in the test on OVCAR-5 is > 100 µM (inactive); with OVCAR-8, 11.3 µM (inactive); in the test with RPMI-8226, > 100 µM (inactive); in the test on SK-MEL-28, > 100 µM (inactive); in the test on SK-MEL-2, > 100 µM (inactive); in the test with SR, 5.66 µM (inactive). Moreover, the GI50 in the test with SW-620 was 11.1 µM (inactive); in the test on UACC-62, > 100 µM (inactive).

Take `CCCN(CCC)C(=S)Sc1nc(C)nc(N2CCN(c3nc(C)nc(SC(=S)N(CCC)CCC)c3[N+](=O)[O-])CC2)c1[N+](=O)[O-]`: the GI50 is 20.7 µM (inactive) in the test on A549; 13.9 µM (inactive) in the test with ACHN; 16.5 µM (inactive) in the test with HCC 2998; 9.4 µM in the test on HCT-15; 11.4 µM (inactive) with IGROV-1; 15.2 µM (inactive) with M14. For the same compound, the GI50 with MCF7 was 0.248 µM (active); with MOLT-4 it was 3.23 µM (inactive); in the test with Malme-3M it was 18.8 µM (inactive); in the test with NCI-H23, 12.4 µM (inactive); with NCI-H460 it was 23.9 µM (inactive); with NCI-H522, 0.316 µM (active). In addition, the GI50 is 23.4 µM (inactive) with OVCAR-5; 5.5 µM (inactive) in the test on OVCAR-8; 0.386 µM (active) with RPMI-8226; 15.3 µM (inactive) with SK-MEL-28; 7.16 µM (inactive) with SK-MEL-2; 1.07 µM (active) with SR. The GI50 in the test with SW-620 is 3.53 µM (inactive); in the test with UACC-62, 7.94 µM (inactive).
